According to patent US20050020544A1, “Bicyclic CB2 cannabinoid receptor ligands” (priority 2002, published 2005):
Like-named read-outs stand apart in the source and are kept apart here.

Columns and labels:
human CB1 receptor = molecular target: T1, human CB1 receptor (Homo sapiens, UniProt P21554); test: biochemical; assay type: binding
T1 construct: purchased Perkin Elmer/NEN; host or cells: HEK-293 cells, stably transfected (membranes)
Summary of the method: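 Displacement of [3H]CP55940 from membranes of HEK-293 cells stably expressing human CB1, in 50 mM Tris-HCl, 2.5 mM EDTA, 5 mM MgCl2, 1 mg/ml BSA, pH 7.4, 0.1% DMSO; 1.5 h at 30° C, then filtration.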

[1] = tested on: TNF-α secretion from activated RAW 264.7 macrophages; test: Inhibition of TNF-α in LPS activated macrophages (ELISA); assay type: cell-based, mouse; details: for effect on TNF-α secretion: doses up to 20 μM
Text: The technique used to quantify the amount of a given protein in a liquid sample, either tissue culture supernatant or body fluid, is based on Enzyme Linked ImmunoSorbent Assay (ELISA) methodology. Either commercially available or established in house, the assay is based on the capture of the protein of interest by specific antibodies bound to the bottom of an ELISA plate well. Unbound material is washed away, the captured protein is then exposed to a secondary antibody generally labeled with horseradish peroxidase (HRP) or alkaline phosphatase (ALP). Again the unbound material is washed away, the samples are then incubated with the appropriate substrate yielding a calorimetric reaction. The reaction is stopped and reading is performed in a spectrophotometer at the appropriate wavelength. Samples are tested at least in duplicate and the appropriate standard curve, consisting of serial dilutions of the recombinant target protein, is incorporated on each plate. Concentration of the protein in the sample is calculated from the standard curve.
RAW 264.7 macrophages, a mouse cell line (ATCC # TIB-71), were grown in Dulbecco's modified Eagle's medium (DMEM) with 4 mM L-glutamine adjusted to contain 1.5 g/L sodium bicarbonate, 4.5 g/L glucose, and 10% heat inactivated fetal bovine serum. Cells were grown in tissue culture flasks and seeded at appropriate density into 24 wells tissue culture plates. 0.5×10^6 Raw cells in one milliliter were stimulated with 2 μg/ml Lipopolysaccharide E. coli 055:B5 (DIFCO Laboratories). The mouse macrophages were pre-treated for one hour with controls or 10 μM of bicyclic CB2 ligands and later on activated with LPS. Dexamethasone was used as a positive control at 50 nM. Supernatant was collected 4 hours (for PGE2) and 24 hours (for IL-1β and TNF-α) after activation, and the levels of the inflammatory agent under study were determined by ELISA, as previously described. Inhibition was calculated versus vehicle treated cells.
The activation of the macrophages is performed as previously described. The levels of TNF-α are measured in an ELISA assay as previously described. Inhibition is calculated versus vehicle treated cells.

Female Balb/c mice = tested on: Female Balb/c mice; parameters: maximal reduction in paw edema: dose or concentration left out as unconfirmed; details: for maximal reduction in paw thickness (MOE) / dose at which the maximal effect was observed: i.p.; for maximal reduction in paw thickness (MOE): 3 hours after carrageenan, at the dose of maximal effect; for dose at which the maximal effect was observed: paw thickness
Procedure: The purpose of this study is to test in vivo the anti-inflammatory activity of the compounds in paw edema induced by injection of 1% carrageenan in the animal hind paw. Female Balb/c mice (20 g average body weight, Harlan, Israel) are anesthetized with a combination of xylazine and pentobarbitone diluted in sterile saline, 15 and 6 mg/kg i.p. respectively. Anesthetized mice are injected subcutaneously, in the subplantar region of one (right) paw with 0.05 ml of 1% w/v Carrageenan in sterile water. […] The test compounds, including known anti-inflammatory controls, are dissolved in CREMOPHOR EL®:ethanol and further diluted 1:20 or 1:50 in sterile saline prior to i.p. injection that takes place immediately before the carrageenan injection. Three hours after injection the animals are resedated following the previously described procedure. Paw thickness is measured using a dial thickness gauge (Spring-dial, constant low pressure gauge, Mitutoyo, TG/L-1, 0.01 mm) and paw volume is measured using a plethysmometer (model #7150, Ugo Basile, Italy). Paw Edema is expressed as the difference between the right treated and the left untreated paws of the same animal, either as Δ Paw Volume (ΔPV) in millimeters cube or as Δ Paw Thickness (ΔPT) in millimeters. Each group comprises at least 10 animals. […] At the end of the study, animals are euthanized with an i.p. injection of 100 mg/kg pentobarbitone.
The differences among various treatment groups are analyzed by analysis of variance (ANOVA) followed by post-hoc Fisher test. A value of p<0.05 is considered to be statistically significant.
For sake of comparison, known anti-inflammatory drugs such as Celecoxib and Dexamethasone yield respectively in the range of relevant doses 7% and 26% reduction in paw thickness at 0.1 mg/kg, 16% and 31% at 0.25 mg/kg and 24% and 33% at 0.5 mg/kg. […] It should be kept in mind that these commercially available drugs display serious side effects that prevent chronic uses without complementary protective medication.

[2] = displacement of [3H]CP55940, hCB1 HEK-293 membranes, read-out: CB1 IC50

T1 sequence (P21554 whole entry): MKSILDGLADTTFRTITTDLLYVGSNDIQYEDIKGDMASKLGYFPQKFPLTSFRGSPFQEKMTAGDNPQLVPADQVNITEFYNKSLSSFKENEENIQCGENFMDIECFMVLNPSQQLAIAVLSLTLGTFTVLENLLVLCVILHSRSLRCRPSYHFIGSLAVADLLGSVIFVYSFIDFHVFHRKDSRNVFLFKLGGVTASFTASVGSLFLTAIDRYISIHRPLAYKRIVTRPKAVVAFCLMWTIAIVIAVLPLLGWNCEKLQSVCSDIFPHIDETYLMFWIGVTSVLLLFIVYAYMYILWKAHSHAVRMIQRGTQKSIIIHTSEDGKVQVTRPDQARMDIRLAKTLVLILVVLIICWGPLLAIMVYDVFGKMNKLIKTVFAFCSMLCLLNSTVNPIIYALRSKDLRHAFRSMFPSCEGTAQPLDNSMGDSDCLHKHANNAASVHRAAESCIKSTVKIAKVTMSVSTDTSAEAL

Structure (SMILES)	IC50 (human CB1 receptor; [2]) [nM]	effect on TNF-α secretion [1]	maximal reduction in paw thickness (MOE) (Female Balb/c mice)	dose at which the maximal effect was observed (Female Balb/c mice) [mg/kg]	maximal reduction in paw edema (Female Balb/c mice; formulated in cosolvent) [%]	therapeutic index (Female Balb/c mice; paw edema, 0.5 mg/kg versus tolerated 40 mg/kg)	IC50 (human CB1 receptor; CB1 IC50, displacement of [3H]CP55940, hCB1 HEK-293 membranes) [nM]	reduction of TNF-α secretion ([1]; 10 μM) [%]	IC50 ([1]; Mus musculus, RAW264.7) [nM]
CCCCC(C)(C)c1cc(O)c(C2CC(=O)C3CC2C3(C)C)c(O)c1 (single isomer, unassigned; (-)) [Compound L, (−)-4-[4(1,1-Dimethyl-pentyl)-2,6-dihydroxy-phenyl]-6,6-dimethyl-bicyclo[3.1.1]heptan-2-one]	446	none of them did significantly affect TNF-α secretion	34%	0.25	–	–	–	–	–
CCCCCCC(C)(C)c1cc(O)c([C@H]2CC(=O)[C@H]3C[C@@H]2C3(C)C)c(OC(=O)CCC(=O)O)c1 [Compound R, (−)-4-{4-[1,1-Dimethyl-heptyl]-2-succinate-6-hydroxy-phenyl}-6,6-dimethyl-bicyclo[3.1.1]heptan-2-one]	41	none of them did significantly affect TNF-α secretion	31%	0.5	31	at least 80	–	–	–
CCCCCCC(C)(C)c1cc(OC)c(C2C=C(CO)C3CC2C3(C)C)c(OC)c1 (single isomer, unassigned; (+)) [HU-308, (+) {4-[4-(1,1-dimethylheptyl)-2,6-dimethoxy-phenyl]-6,6-dimethyl-bicyclo[3.1.1]hept-2-en-2-yl}-methanol, reference compound]	–	–	about 28%	0.6	–	–	3600	–	–
CCCCC(C)(C)c1cc(O)c(C2CC(=O)C3CC2C3(C)C)c(OC(=O)CCC(=O)O)c1 (single isomer, unassigned; (-)) [Compound Y, (−)-4-{4-[1,1-Dimethyl-pentyl]-2-succinate-6-hydroxy-phenyl}-6,6-dimethyl-bicyclo[3.1.1]heptan-2-one]	315	none of them did significantly affect TNF-α secretion	–	–	–	–	–	–	–
CCCCCCC(C)(C)c1cc(O)c(C2CC(=O)C3CC2C3(C)C)c(O)c1 (single isomer, unassigned; (-)) [Compound A, (−)-4-[4-(1,1-Dimethyl-heptyl)2,6-dihydroxy-phenyl]-6,6-dimethyl-bicyclo[3.1.1)heptan-2-one]	27.6	–	28%	2.5	–	–	–	53	10000
